Common to all, as to format: cell-based
Test [1] deals with T1, Sodium/glucose cotransporter 2 (Mus musculus, UniProt Q923I7).
T1 sequence (Q923I7 whole entry): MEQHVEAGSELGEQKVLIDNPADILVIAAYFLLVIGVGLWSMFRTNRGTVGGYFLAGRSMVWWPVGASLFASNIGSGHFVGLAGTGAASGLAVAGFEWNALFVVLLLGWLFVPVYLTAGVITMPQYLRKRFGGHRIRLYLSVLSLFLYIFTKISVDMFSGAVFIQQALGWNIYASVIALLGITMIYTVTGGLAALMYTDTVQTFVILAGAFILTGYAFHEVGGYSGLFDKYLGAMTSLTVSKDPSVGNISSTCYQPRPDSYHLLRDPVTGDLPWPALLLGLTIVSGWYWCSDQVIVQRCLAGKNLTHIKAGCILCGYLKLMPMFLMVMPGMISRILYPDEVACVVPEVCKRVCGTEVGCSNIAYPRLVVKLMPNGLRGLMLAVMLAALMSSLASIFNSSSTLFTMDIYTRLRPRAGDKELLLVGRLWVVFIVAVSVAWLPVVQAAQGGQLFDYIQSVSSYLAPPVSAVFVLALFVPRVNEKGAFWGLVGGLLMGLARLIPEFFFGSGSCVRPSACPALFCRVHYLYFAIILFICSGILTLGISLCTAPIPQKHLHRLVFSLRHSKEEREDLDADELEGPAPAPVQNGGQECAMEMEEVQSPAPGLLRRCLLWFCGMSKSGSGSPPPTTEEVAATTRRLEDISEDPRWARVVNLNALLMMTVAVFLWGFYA
Put plainly: Inhibition of mouse SGLT2 expressed in CHO cells assessed as inhibition of [14C]-alpha-methyl-D-glucopyranoside transport after 60 mins by scintillation counting.

Test [2] concerns the target T2, Sodium/glucose cotransporter 1 (Rattus norvegicus, UniProt P53790).
T2 sequence (P53790 whole entry): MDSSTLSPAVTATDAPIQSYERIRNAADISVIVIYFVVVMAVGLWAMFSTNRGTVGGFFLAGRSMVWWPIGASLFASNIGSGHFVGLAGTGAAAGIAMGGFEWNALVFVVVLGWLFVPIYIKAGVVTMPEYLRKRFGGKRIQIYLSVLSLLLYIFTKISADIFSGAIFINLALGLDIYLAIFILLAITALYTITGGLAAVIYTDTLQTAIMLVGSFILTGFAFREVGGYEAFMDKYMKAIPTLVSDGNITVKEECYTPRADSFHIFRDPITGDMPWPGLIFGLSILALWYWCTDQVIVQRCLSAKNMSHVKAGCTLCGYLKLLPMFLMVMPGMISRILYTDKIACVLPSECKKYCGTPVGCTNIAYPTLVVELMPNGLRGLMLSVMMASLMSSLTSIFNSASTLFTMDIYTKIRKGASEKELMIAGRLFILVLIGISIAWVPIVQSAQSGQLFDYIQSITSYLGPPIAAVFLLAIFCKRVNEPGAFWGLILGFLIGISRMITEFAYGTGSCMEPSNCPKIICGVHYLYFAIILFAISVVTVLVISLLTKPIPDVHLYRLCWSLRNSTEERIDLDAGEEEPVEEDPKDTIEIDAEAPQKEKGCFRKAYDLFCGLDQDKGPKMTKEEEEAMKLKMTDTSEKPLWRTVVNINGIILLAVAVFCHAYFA
The test is described as follows: Inhibition of rat SGLT1 expressed in CHO cells assessed as inhibition of [14C]-alpha-methyl-D-glucopyranoside transport after 60 mins by scintillation counting.

A further test concerns the target T3, SGLT1 protein (Mus musculus, UniProt Q9QXI6).
T3 sequence (Q9QXI6 whole entry): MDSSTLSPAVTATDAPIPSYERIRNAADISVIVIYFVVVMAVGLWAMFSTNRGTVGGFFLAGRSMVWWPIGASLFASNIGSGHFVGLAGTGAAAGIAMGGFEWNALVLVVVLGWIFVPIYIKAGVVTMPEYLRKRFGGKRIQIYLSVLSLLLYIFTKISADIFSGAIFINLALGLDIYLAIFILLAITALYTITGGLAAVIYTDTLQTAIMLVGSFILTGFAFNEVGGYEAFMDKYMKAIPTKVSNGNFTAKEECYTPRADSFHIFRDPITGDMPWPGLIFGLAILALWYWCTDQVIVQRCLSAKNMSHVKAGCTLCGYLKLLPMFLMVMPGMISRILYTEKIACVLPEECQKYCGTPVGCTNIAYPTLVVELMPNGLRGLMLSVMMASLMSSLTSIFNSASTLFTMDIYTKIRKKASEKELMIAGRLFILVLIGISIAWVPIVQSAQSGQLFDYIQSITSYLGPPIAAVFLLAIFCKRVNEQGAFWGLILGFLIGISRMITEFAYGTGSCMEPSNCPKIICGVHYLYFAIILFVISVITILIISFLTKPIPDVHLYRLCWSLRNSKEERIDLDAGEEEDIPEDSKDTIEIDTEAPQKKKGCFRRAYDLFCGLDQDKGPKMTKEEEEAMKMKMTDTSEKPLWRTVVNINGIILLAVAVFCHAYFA
The test is described as follows: Inhibition of mouse SGLT1 expressed in CHO cells assessed as inhibition of [14C]-alpha-methyl-D-glucopyranoside transport after 60 mins by scintillation counting.

The target in test [3] is T4, Sodium/glucose cotransporter 2 (Rattus norvegicus, UniProt P53792).
T4 sequence (P53792 whole entry): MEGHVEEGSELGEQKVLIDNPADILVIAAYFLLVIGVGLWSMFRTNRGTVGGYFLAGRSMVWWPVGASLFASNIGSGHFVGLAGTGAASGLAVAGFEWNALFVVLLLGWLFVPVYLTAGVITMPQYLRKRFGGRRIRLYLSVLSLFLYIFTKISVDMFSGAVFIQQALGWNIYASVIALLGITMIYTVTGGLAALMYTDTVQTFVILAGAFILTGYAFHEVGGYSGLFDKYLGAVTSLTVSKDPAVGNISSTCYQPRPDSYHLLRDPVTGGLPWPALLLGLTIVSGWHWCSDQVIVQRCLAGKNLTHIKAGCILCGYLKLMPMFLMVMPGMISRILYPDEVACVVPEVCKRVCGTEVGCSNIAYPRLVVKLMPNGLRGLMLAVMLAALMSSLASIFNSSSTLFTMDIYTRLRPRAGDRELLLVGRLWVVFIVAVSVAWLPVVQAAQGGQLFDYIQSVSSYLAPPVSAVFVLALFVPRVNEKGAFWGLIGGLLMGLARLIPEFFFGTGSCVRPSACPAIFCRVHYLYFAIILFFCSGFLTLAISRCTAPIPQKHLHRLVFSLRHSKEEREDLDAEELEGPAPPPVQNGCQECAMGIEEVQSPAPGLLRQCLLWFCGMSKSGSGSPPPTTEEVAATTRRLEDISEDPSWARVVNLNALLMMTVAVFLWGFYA
The test is described as follows: Inhibition of rat SGLT2 expressed in CHO cells assessed as inhibition of [14C]-alpha-methyl-D-glucopyranoside transport after 60 mins by scintillation counting.

As usually defined, the IC50 is the point on the concentration scale where inhibition reaches its midpoint.

Each structure is given as a SMILES string.

For the compound `Cn1c(CN2C(=O)CSc3ccc(C(F)(F)F)cc32)nnc1SCc1ccc(Cl)cc1`, the 50% inhibitory concentration (IC50) in test [1] came out at 1.2 µM; in test [2], 9 µM; at SGLT1 protein, 3 µM; in test [3], 0.4 µM.

The values are drawn from ChEMBL document CHEMBL1759842, “Discovery of non-glucoside SGLT2 inhibitors” (Bioorg Med Chem Lett, 2011).
